Data as given in publication doi:10.1101/2025.11.04.686469, “Discovery of Host-Directed Small Molecules with Broad Anti-Leishmanial Efficacy” (bioRxiv, 2025).

Tested on: intracellular L. donovani in WT and Lys K/O BMDMs
Test: 197 target validation: Giemsa staining in BMDMs from wild-type and lysozyme knockout mice
Type: cell-based, Leishmania donovani
Conditions: WT vs Lys K/O BMDMs
Excerpt: B6.129P2-Lyz2^tm1(cre)Ifo/J mice[23] (stock #004781, herein termed ‘Lys K/O’) were obtained from Jackson Laboratory. This strain has a nuclear-localized Cre recombinase inserted into the first coding ATG of the lysozyme 2 gene (Lyz2) which eliminates endogenous Lyz2 gene function. Wildtype C57BL6/J mice (stock #000664) were obtained as a control.
Bone marrow derived macrophages (BMDMs) were isolated from both mice and cultured as described above in “Image-based Evaluation of Intracellular Anti-Leishmanial Activity”. BMDMs were seeded onto glass cover slips, infected with LV82 L. donovani at a multiplicity of infection of 1:10. Cells were washed to remove extracellular promastigotes and treated with compounds (197, amphotericin B) for a 72-hour incubation. BMDM cells were then washed with phosphate buffered saline, fixed with ice-cold methanol, and stained with Giemsa (5% v/v in water). The cover slips with stained cells are mounted onto glass slides and imaged on EVOS XL (100X, Thermo Fisher Scientific). Leishmania amastigotes per 100 macrophages were determined in a blinded manner.

## C[C@@H]1[C@H](O)[C@@H](C)/C=C/C=C/C=C/C=C/C=C/C=C/C=C/[C@H](O[C@@H]2O[C@H](C)[C@@H](O)[C@H](N)[C@@H]2O)C[C@@H]2O[C@](O)(C[C@@H](O)C[C@@H](O)[C@H](O)CC[C@@H](O)C[C@@H](O)CC(=O)O[C@H]1C)C[C@H](O)[C@H]2C(=O)O [Amphotericin B, reference compound]
  anti-leishmanial activity in Lys K/O BMDMs: retained its anti-leishmanial activity
